Source: paper PMC4868099 (ACS Medicinal Chemistry Letters, 2016)
“Also recorded” adds a separate entry of the source.

Columns and labels:
[1] = target: T1, human kidney-type glutaminase (hKGA124–669) (Homo sapiens, UniProt O94925); assay type: biochemical
T1 sequence (O94925 124-669): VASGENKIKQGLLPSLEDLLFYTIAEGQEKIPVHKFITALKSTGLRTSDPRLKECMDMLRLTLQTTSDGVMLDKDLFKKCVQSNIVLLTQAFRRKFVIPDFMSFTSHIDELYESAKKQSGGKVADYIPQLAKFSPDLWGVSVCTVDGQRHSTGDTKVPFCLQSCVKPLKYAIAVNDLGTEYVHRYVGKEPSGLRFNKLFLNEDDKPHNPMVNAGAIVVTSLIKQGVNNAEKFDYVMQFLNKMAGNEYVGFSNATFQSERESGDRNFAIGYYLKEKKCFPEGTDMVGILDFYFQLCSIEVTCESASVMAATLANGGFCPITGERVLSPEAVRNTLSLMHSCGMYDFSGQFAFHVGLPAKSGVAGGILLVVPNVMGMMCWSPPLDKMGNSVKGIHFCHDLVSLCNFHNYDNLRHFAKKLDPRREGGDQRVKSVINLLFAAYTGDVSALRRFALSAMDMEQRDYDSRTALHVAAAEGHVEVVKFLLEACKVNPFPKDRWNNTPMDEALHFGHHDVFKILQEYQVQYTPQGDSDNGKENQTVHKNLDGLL

[2] = system: GLS (both KGA and GAC isoenzymes) over GLS2; details: cited from earlier work
HCC1806 = experiment: Cell growth / viability, CellTiter-Glo, HCC1806; assay type: cell-based, human; details: 72 h of incubation
MDA-MB-231 = experiment: Cell growth / viability, CellTiter-Glo, MDA-MB-231; assay type: cell-based, human; details: 72 h of incubation

O=C(Cc1ccc(O)cc1)Nc1nnc(CCCCc2nnc(NC(=O)Cc3ccc(O)cc3)s2)s1 [2q]
higher GLS inhibitory potency compared with 2p [1]: 10 fold

[N-]=[N+]=CC(=O)CC[C@H](N)C(=O)O [DON, 6-Diazo-5-oxo-L-norleucine]
selectivity GLS versus GLS2 [2]: inhibits both GLS and GLS2

O=C(Cc1ccccc1)Nc1nnc(CCCCc2nnc(NC(=O)Cc3ccc(O)cc3)s2)s1 [compound 2m, 4-hydroxy-N-[5-[4-[5-[(2-phenylacetyl)amino]-1,3,4-thiadiazol-2-yl]butyl]-1,3,4-thiadiazol-2-yl]-benzeneacetamide]
antiproliferative effect compared with BPTES and CB-839 in HCC1806 (HCC1806): least effective | increase in GLS inhibitory potency from the corresponding acetoxy derivative 2j [1]: ~8 fold | time dependency of GLS inhibitory potency (effect of preincubation time) ([1]; Figure 2): no time-dependent increase in GLS inhibitory potency; also recorded: did not exhibit time-dependency | antiproliferative effect compared with BPTES and CB-839 in MDA-MB-231 (MDA-MB-231): least effective | growth inhibition of MDA-MB-231 (MDA-MB-231; 1000 nM, P < 0.05 compared to controls): statistically significant growth inhibition
